From patent publication US20250059188A1, “ARYLSULPHONAMIDE COMPOUNDS” (Anaxis Pharma Pty Ltd, priority 2021, published 2025)
Where two headings read alike, the source gives them in different places.

Experiments:
human MLKL (full length) = human MLKL (full length) (Homo sapiens (Human), UniProt Q8NB16); experiment: KINOMEscan binding assay, human MLKL (full length); settings: equilibrium dissociation constant
Summary of the method: (§1)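 Competition binding format with qPCR detection. Kinases, either phage-fused from E. coli lysates or HEK-293-derived with a DNA tag, bound ligand-coated beads in the presence of compound (11 points, 3-fold steps, 1% DMSO, top usually 30,000 nM). Kd from nonlinear Hill fitting with slope −1.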

human RIPK1 = human RIPK1 (Homo sapiens (Human), UniProt Q13546); experiment: KINOMEscan binding assay, human RIPK1; settings: equilibrium dissociation constant
human RIPK1, sequence (Q13546 whole entry): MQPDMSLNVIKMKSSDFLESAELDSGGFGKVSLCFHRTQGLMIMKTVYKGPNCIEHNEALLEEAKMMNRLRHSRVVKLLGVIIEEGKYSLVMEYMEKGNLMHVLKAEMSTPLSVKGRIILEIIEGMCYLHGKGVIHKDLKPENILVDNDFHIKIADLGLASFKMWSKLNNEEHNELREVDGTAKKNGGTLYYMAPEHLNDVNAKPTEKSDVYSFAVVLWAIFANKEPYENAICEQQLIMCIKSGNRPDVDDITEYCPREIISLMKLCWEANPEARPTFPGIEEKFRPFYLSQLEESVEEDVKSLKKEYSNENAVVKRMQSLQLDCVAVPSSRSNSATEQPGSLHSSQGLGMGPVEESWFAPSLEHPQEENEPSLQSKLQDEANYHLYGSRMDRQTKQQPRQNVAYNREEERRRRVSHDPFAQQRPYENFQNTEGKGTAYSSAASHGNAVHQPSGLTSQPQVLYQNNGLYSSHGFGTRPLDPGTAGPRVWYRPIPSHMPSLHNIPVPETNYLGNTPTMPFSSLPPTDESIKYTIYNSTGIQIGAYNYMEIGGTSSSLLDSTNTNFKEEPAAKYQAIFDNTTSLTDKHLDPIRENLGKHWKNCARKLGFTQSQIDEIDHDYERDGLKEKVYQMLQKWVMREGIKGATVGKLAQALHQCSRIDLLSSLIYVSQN
Summary of the method: as §1

human RIPK3 = human RIPK3 (Homo sapiens (Human), UniProt Q9Y572); experiment: KINOMEscan binding assay, human RIPK3; settings: equilibrium dissociation constant
human RIPK3, sequence (Q9Y572 whole entry): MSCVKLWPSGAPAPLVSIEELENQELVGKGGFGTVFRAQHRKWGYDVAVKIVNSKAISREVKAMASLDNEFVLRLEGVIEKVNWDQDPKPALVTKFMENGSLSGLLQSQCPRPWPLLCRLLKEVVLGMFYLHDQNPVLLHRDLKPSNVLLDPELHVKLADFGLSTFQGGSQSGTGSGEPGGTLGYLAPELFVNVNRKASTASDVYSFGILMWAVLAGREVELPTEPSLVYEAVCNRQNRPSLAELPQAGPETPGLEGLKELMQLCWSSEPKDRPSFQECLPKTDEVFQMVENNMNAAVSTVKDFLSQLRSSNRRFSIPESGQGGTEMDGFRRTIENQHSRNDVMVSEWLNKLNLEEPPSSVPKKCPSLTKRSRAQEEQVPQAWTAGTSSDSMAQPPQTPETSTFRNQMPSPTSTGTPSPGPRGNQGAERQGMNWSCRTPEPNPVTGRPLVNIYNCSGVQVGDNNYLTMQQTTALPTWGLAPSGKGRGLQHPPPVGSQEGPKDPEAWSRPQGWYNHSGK
Summary of the method: as §1

[1] = tested on: U937 human histiocytic leukemia cell line; experiment: Inhibition of TSQ induced necroptosis in U937 cells (CellTitre-Glo); settings: 48 hours, read-out: Inhibition of TSQ-induced necroptosis (IC50 cell-based assay)
Summary of the method: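 Necroptosis was induced with TNF-Fc (100 ng/ml), Smac mimetic (500 nM) and Q-VD-OPh (10 μM) in 20000 U937 cells/well exposed to a 10-point, 3-fold compound series (top 36 μM, 0.3% DMSO). ATP luminescence read after 48 h; 4-parameter fit gave IC50. Parallel TSQ-free wells assessed compound toxicity.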

U937 cells = experiment: Counter screen: U937 cell viability without TSQ cocktail (off-target effect); set-up: species or system human; settings: read-out: Off-target effect (IC50 cell-based assay)
Summary of the method: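 Off-target viability counter screen: compounds titrated 36 μM down 1:3 over 10 points (0.3% DMSO) on 20,000 U937 cells/well, no TNF/Smac mimetic/Q-VD-OPh added, 48 h incubation. ATP-based CellTiter-Glo luminescence, four-parameter logistic IC50.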

[2] = tested on: Immortalised Mouse Dermal Fibroblasts (MDFs); experiment: Inhibition of TSI induced necroptosis in mouse dermal fibroblasts (CellTitre-Glo); settings: MDF cells, TSI cocktail (TNF, Smac mimetic, IDN-6556), read-out: Inhibition of TSI-induced necroptosis (IC50 cell-based assay) in MDF
Procedure: Cellular Assay: Screening Compounds for Inhibition of TSI Induced Necroptosis in, 384 well plate format. • Cell Line ID: Immortalised Mouse Dermal Fibroblasts (MDFs). • Cell Concentration (cells/well): Final cell density is 2200 cells per well. • Cell growth medium: DMEM medium+7.4% Fetal Bovine Serum (FBS). Cells are cultured in Corning 150 cm^2 tissue culture flasks with vented caps at 37° C./10% CO2. • Incubation: Plates were incubated for 30 minutes following addition of compounds and then 3 hours incubation with death stimuli (TSI cocktail) at 37° C./10% CO2 in a humidified incubator. • Compound concentration: 36 μM starting concentration, 1:3 dilution, 10 point • DMSO final concentration (% v/v): 0.3%. Compounds in TSI Cocktail (T: TNF; S: Smac Mimetic; I: IDN-6556) and their Final Concentrations: • rhTNF (100 ng/ml) • Compound A (500 nM)—Smac mimetic, Tetralogic and SYNthesis med chem • IDN-6556 (10 μM)—Selleckchem (S7775)
The cellular assay was carried out according to the following steps: • 1. Each well was prepared by sequential addition of: • a. 40 μL of cell suspension (5.5×10^4 cells/mL) was added to each well to provide a final cell concentration of 2,200 cells per well. • b. After 24 hours, DMSO (control; columns 1-2 and 23-24) or compound in DMSO—addition was performed using acoustic transfer of nL volumes of stock compound to give final test concentrations of 36, 12, 4, 1.3, 0.44, 0.148, 0.049, 0.016, 0.005 and 0.002 μM. All wells were backfilled with DMSO to a final total volume in the well of 100 nL. • c. Following compound/DMSO addition in step (b), Plates were incubated for 30 minutes at 37° C./10% CO2 in a humidified incubator and then 10 μL of 5×TSI cocktail (except to positive controls; columns 2 and 24) was added to each well. • 2. After 3 hours, plate was removed from the 37° C. incubator and equilibrated to room temperature for 15 minutes. • 3. 15 μL of room temperature CellTitre-Glo2™ (Promega™) was added to each well. • 4. Shook plates for 2 minutes (˜600 rpm) and incubated at room temperature for 15 minutes to allow signal to stabilise. • 5. Read luminescence readout on a plate reader.
Percent viability was calculated for each compound according to equation (2): […]
10 point titration curves were fitted with the 4 parameter logistic nonlinear regression model and the IC50 reported reflect the inflection point of the curve for curve fitting.
• Assay involving the TSI cocktail (T: TNF; S: Smac mimetic; I: IDN-6556): TSI treatment ensures that cells specifically undergo necroptotic cell death. TNF activates the TNF receptor, Smac mimetic directs the signal away from proinflammatory signaling and toward the RIPK1/RIPK3-mediated cell death pathways, and IDN-6556 (Caspase inhibitor) ensures that the apoptotic response is blocked leaving only the programmed necrosis response. The compounds' activity (solution in DMSO) tested in this TSI-induced assay was evaluated by determining the number of viable cells in culture by measuring the amount of ATP present as measured by CelltiterGlo.

[3] = TSQ cocktail (TNF, Smac mimetic, Q-VD-OPh)
[4] = Homo sapiens, U-937, TSQ cocktail (TNF, Smac mimetic, Q-VD-OPh)
[5] = Homo sapiens, U-937, compound without TSQ cocktail

human MLKL (full length), sequence (Q8NB16 whole entry, the tested form may be a part): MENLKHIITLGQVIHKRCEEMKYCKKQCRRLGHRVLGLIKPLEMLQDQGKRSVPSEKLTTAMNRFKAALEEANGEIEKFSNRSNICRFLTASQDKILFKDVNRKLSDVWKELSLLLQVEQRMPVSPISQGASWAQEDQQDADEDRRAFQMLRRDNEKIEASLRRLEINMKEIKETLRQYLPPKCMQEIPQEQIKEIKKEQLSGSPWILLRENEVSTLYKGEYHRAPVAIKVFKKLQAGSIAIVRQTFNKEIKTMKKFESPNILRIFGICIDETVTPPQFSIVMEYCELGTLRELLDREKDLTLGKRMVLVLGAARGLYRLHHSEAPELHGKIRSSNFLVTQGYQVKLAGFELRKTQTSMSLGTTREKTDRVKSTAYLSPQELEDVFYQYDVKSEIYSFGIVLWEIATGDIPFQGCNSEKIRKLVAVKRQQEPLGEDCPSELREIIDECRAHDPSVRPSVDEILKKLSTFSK

Row | Kd (human MLKL (full length)) [nM] | Kd (human RIPK1) [nM] | Kd (human RIPK3) [nM] | SMILES | IC50 [1, 3] [nM] | IC50 (U937 cells; compound without TSQ cocktail) [nM] | IC50 ([2]; 3 hours) [nM] | IC50 ([2]; Mus musculus, Fibroblast, 3 h) [nM] | IC50 [1, 4] [nM] | IC50 (U937 cells; [5]) [nM]
1 | 1 to 100 | > 10000 | > 10000 | C[C@H](Oc1cc(-c2nn(C)c3c(-c4cnn(C5CCN(C)C(C)(C)C5)c4)cnc(N)c23)ccc1NS(=O)(=O)C(F)F)c1ccc(F)cc1 (single isomer, unassigned) [Compound 155, N-(4-(4-amino-1-methyl-7-(1-((S*)-1,2,2-trimethylpiperidin-4-yl)-1H-pyrazol-4-yl)-1H-pyrazolo[4,3-c]pyridin-3-yl)-2-((S)-1-(4-fluorophenyl)ethoxy)phenyl)-1,1-difluoromethanesulfonamide] | < 10 | > 10000 | 100 to 1000 | – | – | –
2 | 1 to 100 | > 10000 | > 10000 | C[C@H](Oc1cc(-c2nn(C)c3c(-c4cnn(C5CCN(C)C6(CC6)C5)c4)cnc(N)c23)ccc1NS(=O)(=O)C(F)F)c1ccc(F)cc1 (single isomer, unassigned) [Compound 171, N-(4-(4-amino-1-methyl-7-(1-((R*)-4-methyl-4-azaspiro[2.5]octan-7-yl)-1H-pyrazol-4-yl)-1H-pyrazolo[4,3-c]pyridin-3-yl)-2-((S)-1-(4-fluorophenyl)ethoxy)phenyl)-1,1-difluoromethanesulfonamide] | 10 to 1000 | > 10000 | < 100 | – | – | –
3 | 1 to 100 | – | – | C[C@H](Oc1cc(-c2nn(C)c3c(-c4cnn(C5CCN(C)C(C(F)F)C5)c4)cnc(N)c23)ccc1NS(=O)(=O)C(F)F)c1ccc(F)cc1 (stereo partly drawn) [Compound 158, N-(4-(4-amino-7-(1-(2-(difluoromethyl)-1-methylpiperidin-4-yl)-1H-pyrazol-4-yl)-1-methyl-1H-pyrazolo[4,3-c]pyridin-3-yl)-2-((S)-1-(4-fluorophenyl)ethoxy)phenyl)-1,1-difluoromethanesulfonamide] | – | – | – | < 100 | < 10 | > 10000

The remaining lines, values behind:

Row | SMILES | Kd (human MLKL (full length)) [nM] | Kd (human RIPK1) [nM] | Kd (human RIPK3) [nM] | IC50 [1, 3] [nM] | IC50 (U937 cells; compound without TSQ cocktail) [nM] | IC50 ([2]; 3 hours) [nM] | IC50 ([2]; Mus musculus, Fibroblast, 3 h) [nM] | IC50 [1, 4] [nM] | IC50 (U937 cells; [5]) [nM]
4 | CCS(=O)(=O)Nc1ccc(-c2coc3c(-c4cnn(C5CCOCC5)c4)cnc(N)c23)cc1OCc1ccc(F)cc1 [Compound 3, N-(4-(4-amino-7-(1-(tetrahydro-2H-pyran-4-yl)-1H-pyrazol-4-yl)furo[3,2-c]pyridin-3-yl)-2-((4-fluorobenzyl)oxy)phenyl)ethanesulfonamide] | < 1 | > 10000 | > 10000 | – | – | – | 1000 to 10000 | – | –
5 | C[C@H](Oc1cc(-c2nn(C)c3c(-c4cnn(C5CCOCC5)c4)cnc(N)c23)ccc1NS(=O)(=O)C(F)F)c1ccc(Cl)cc1 [Compound 137, (S)-N-(4-(4-amino-1-methyl-7-(1-(tetrahydro-2H-pyran-4-yl)-1H-pyrazol-4-yl)-1H-pyrazolo[4,3-c]pyridin-3-yl)-2-(1-(4-chlorophenyl)ethoxy)phenyl)-1,1-difluoromethanesulfonamide] | – | – | – | – | – | – | 1000 to 10000 | < 10 | > 10000
6 | C[C@H](Oc1cc(-c2nn(C)c3c(-c4cnn(C5CCNC(C(F)(F)F)C5)c4)cnc(N)c23)ccc1NS(=O)(=O)C(F)F)c1ccc(F)cc1 (stereo partly drawn) [Compound 149, N-(4-(4-amino-1-methyl-7-(1-(2-(trifluoromethyl)piperidin-4-yl)-1H-pyrazol-4-yl)-1H-pyrazolo[4,3-c]pyridin-3-yl)-2-((S)-1-(4-fluorophenyl)ethoxy)phenyl)-1,1-difluoromethanesulfonamide] | – | – | – | – | – | – | 100 to 1000 | < 10 | > 10000
7 | Cn1nc(-c2ccc(NS(=O)(=O)C(F)F)c(OCC3CCCCC3)c2)c2c(N)ncc(-c3cnn(C4CCOCC4)c3)c21 [Compound 150, N-(4-(4-amino-1-methyl-7-(1-(tetrahydro-2H-pyran-4-yl)-1H-pyrazol-4-yl)-1H-pyrazolo[4,3-c]pyridin-3-yl)-2-(cyclohexylmethoxy)phenyl)-1,1-difluoromethanesulfonamide] | < 1 | > 10000 | > 10000 | – | – | – | 1000 to 10000 | – | –
8 | [2H]C([2H])([2H])N1CCC(n2cc(-c3cnc(N)c4c(-c5ccc(NS(=O)(=O)C(F)F)c(O[C@@H](C)c6ccc(F)cc6)c5)nn(C)c34)cn2)CC1(C)C (stereo partly drawn) [Compound 152, N-(4-(4-amino-7-(1-(2,2-dimethyl-1-(methyl-d3)piperidin-4-yl)-1H-pyrazol-4-yl)-1-methyl-1H-pyrazolo[4,3-c]pyridin-3-yl)-2-((S)-1-(4-fluorophenyl)ethoxy)phenyl)-1,1-difluoromethanesulfonamide] | – | – | – | – | – | – | 100 to 1000 | < 10 | > 10000
9 | C[C@H](Oc1cc(-c2nn(C)c3c(-c4ccc5c(c4)CC(=O)N5C)cnc(N)c23)ccc1NS(=O)(=O)C(F)F)c1ccc(F)cc1 [Compound 165, (S)-N-(4-(4-amino-1-methyl-7-(1-methyl-2-oxoindolin-5-yl)-1H-pyrazolo[4,3-c]pyridin-3-yl)-2-(1-(4-fluorophenyl)ethoxy)phenyl)-1,1-difluoromethanesulfonamide] | 1 to 100 | > 10000 | > 10000 | – | – | – | – | 10 to 1000 | > 10000
10 | C[C@H](Oc1cc(-c2nn(C)c3c(-c4cnn(C5CCC(N(C)C)C5)c4)cnc(N)c23)ccc1NS(=O)(=O)C(F)F)c1ccc(F)cc1 (stereo partly drawn) [Compound 168, N-(4-(4-amino-7-(1-(3-(dimethylamino)cyclopentyl)-1H-pyrazol-4-yl)-1-methyl-1H-pyrazolo[4,3-c]pyridin-3-yl)-2-((S)-1-(4-fluorophenyl)ethoxy)phenyl)-1,1-difluoromethanesulfonamide] | – | – | – | – | – | – | 100 to 1000 | 10 to 1000 | > 10000
